Source: US20170190671A1, “BIS(ARYL)CATECHOL DERIVATIVES AS HERBICIDES” (E I DU PONT DE NEMOURS AND COMPANY, priority 2014, published 2017)

How the values were obtained:
[1] = system: barnyardgrass (Echinochloa crus-galli); test: Test A preemergence; type: in vivo; conditions: Echinochloa crus-galli, pre-emergence, 240 h; for pest or weed control at 31 g/ha: 31 g ai/ha, 0 to 100 scale (0 no effect, 100 complete control), read-out: Barnyardgrass plant response rating; for pest or weed control at 125 g/ha: 125 g ai/ha, 0 to 100 scale, read-out: Plant response rating, Barnyardgrass
Outline: (§1)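 Scoring: eye-based comparison with untreated controls, 0 for no effect through 100 for complete control, at about day 10. Treatments: directed soil spray preemergence; foliar spray postemergence on 2–10 cm plants at the one- to two-leaf stage. Medium: loam soil with sand.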

[2] = system: Italian ryegrass (Lolium multiflorum); test: Test A preemergence; type: in vivo; conditions: Lolium multiflorum, pre-emergence, 240 h; for pest or weed control at 31 g/ha: 31 g ai/ha; for pest or weed control at 125 g/ha: 125 g ai/ha
Outline: as §1

[3] = system: pigweed (Amaranthus retroflexus); test: Test A preemergence; type: in vivo; conditions: Amaranthus retroflexus, pre-emergence, 240 h; for pest or weed control at 31 g/ha: 31 g ai/ha; for pest or weed control at 125 g/ha: 125 g ai/ha
Outline: as §1

[4] = system: ragweed (common ragweed, Ambrosia elatior); test: Test A preemergence; type: in vivo; conditions: Ambrosia artemisiifolia, pre-emergence, 240 h; for pest or weed control at 31 g/ha: 31 g ai/ha; for pest or weed control at 125 g/ha: 125 g ai/ha
Outline: as §1

kochia (Kochia scoparia) [5] = test: Test A preemergence; type: in vivo; conditions: Bassia scoparia, pre-emergence, 240 h; for pest or weed control at 31 g/ha: 31 g ai/ha; for pest or weed control at 125 g/ha: 125 g ai/ha
Outline: as §1

[6] = system: giant foxtail (Setaria faberii); test: Test A preemergence; type: in vivo; conditions: Setaria faberi, pre-emergence, 240 h; for pest or weed control at 31 g/ha: 31 g ai/ha; for pest or weed control at 125 g/ha: 125 g ai/ha
Outline: as §1

[7] = system: wheat (Triticum aestivum); test: Test A postemergence; type: in vivo; conditions: Triticum aestivum, post-emergence, 240 h, 0 to 100 scale, read-out: Plant response rating, Wheat; for plant injury at 31 g/ha: 31 g ai/ha; for plant injury at 125 g/ha: 125 g ai/ha
Outline: as §1

[8] = system: barnyardgrass (Echinochloa crus-galli); test: Test A postemergence; type: in vivo; conditions: Echinochloa crus-galli, post-emergence, 240 h, 0 to 100 scale, read-out: Plant response rating, Barnyardgrass; for pest or weed control at 31 g/ha: 31 g ai/ha; for pest or weed control at 125 g/ha: 125 g ai/ha
Outline: as §1

[9] = system: Italian ryegrass (Lolium multiflorum); test: Test A postemergence; type: in vivo; conditions: Lolium multiflorum, post-emergence, 240 h, 0 to 100 scale, read-out: Plant response rating, Ryegrass, Italian; for pest or weed control at 31 g/ha: 31 g ai/ha; for pest or weed control at 125 g/ha: 125 g ai/ha
Outline: as §1

[10] = system: blackgrass (Alopecurus myosuroides); test: Test A postemergence; type: in vivo; conditions: Alopecurus myosuroides, post-emergence, 240 h, 0 to 100 scale, read-out: Plant response rating, Blackgrass; for pest or weed control at 31 g/ha: 31 g ai/ha; for pest or weed control at 125 g/ha: 125 g ai/ha
Outline: as §1

[11] = system: pigweed (Amaranthus retroflexus); test: Test A postemergence; type: in vivo; conditions: Amaranthus retroflexus, post-emergence, 240 h, 0 to 100 scale, read-out: Plant response rating, Pigweed; for pest or weed control at 31 g/ha: 31 g ai/ha; for pest or weed control at 125 g/ha: 125 g ai/ha
Outline: as §1

corn (Zea mays) = test: Test A postemergence; type: in vivo; conditions: Zea mays, post-emergence, 240 h, 0 to 100 scale; for Corn plant response rating (crop injury, 0 = no effect, 100 = complete kill) at 31 g/ha: 31 g ai/ha; for Corn plant response rating (crop injury, 0 = no effect, 100 = complete kill) at 125 g/ha: 125 g ai/ha
Outline: as §1

[12] = system: ragweed (common ragweed, Ambrosia elatior); test: Test A postemergence; type: in vivo; conditions: Ambrosia artemisiifolia, post-emergence, 240 h, 0 to 100 scale, read-out: Plant response rating, Ragweed; for pest or weed control at 31 g/ha: 31 g ai/ha; for pest or weed control at 125 g/ha: 125 g ai/ha
Outline: as §1

[13] = system: galium (catchweed bedstraw, Galium aparine); test: Test A postemergence; type: in vivo; conditions: Galium, post-emergence, 240 h, 0 to 100 scale, read-out: Plant response rating, Galium; for pest or weed control at 31 g/ha: 31 g ai/ha; for pest or weed control at 125 g/ha: 125 g ai/ha
Outline: as §1

kochia (Kochia scoparia) [14] = test: Test A postemergence; type: in vivo; conditions: Bassia scoparia, post-emergence, 240 h, 0 to 100 scale, read-out: Plant response rating, Kochia; for pest or weed control at 31 g/ha: 31 g ai/ha; for pest or weed control at 125 g/ha: 125 g ai/ha
Outline: as §1

[15] = system: giant foxtail (Setaria faberii); test: Test A postemergence; type: in vivo; conditions: Setaria faberi, post-emergence, 240 h, 0 to 100 scale, read-out: Plant response rating, Foxtail, Giant; for pest or weed control at 31 g/ha: 31 g ai/ha; for pest or weed control at 125 g/ha: 125 g ai/ha
Outline: as §1

rice (Oryza sativa) = test: Test B flooded paddy; type: in vivo; conditions: Oryza sativa, 336 h; 250 g ai/ha, Flood, 13 to 15 days, scale 0 (no effect) to 100 (complete control); read-out: Plant response rating, Rice
Outline: (§2)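 Compound was added to standing water 3 cm above soil, flood maintained, and plants held in a greenhouse before visual scoring against controls at 13 to 15 days.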

[16] = system: barnyardgrass (Echinochloa crus-galli); test: Test B flooded paddy; type: in vivo; conditions: Echinochloa crus-galli, 336 h; 250 g ai/ha, Flood, 13 to 15 days, scale 0 (no effect) to 100 (complete control); read-out: Plant response rating, Barnyardgrass
Outline: as §2

[17] = system: ducksalad (Heteranthera limosa); test: Test B flooded paddy; type: in vivo; conditions: Heteranthera limosa, 336 h; 250 g ai/ha, Flood, 13 to 15 days, scale 0 (no effect) to 100 (complete control); read-out: Plant response rating, Ducksalad
Outline: as §2

[18] = system: sedge, umbrella (small-flower umbrella sedge, Cyperus difformis); test: Test B flooded paddy; type: in vivo; conditions: Cyperus difformis, 336 h; 250 g ai/ha, Flood, 13 to 15 days, scale 0 (no effect) to 100 (complete control); read-out: Plant response rating, Sedge, Umbrella
Outline: as §2

[19] = 0 to 100 scale (0 no effect, 100 complete control), read-out: Ryegrass, Italian plant response rating
[20] = 0 to 100 scale (0 no effect, 100 complete control), read-out: Pigweed plant response rating
[21] = 0 to 100 scale (0 no effect, 100 complete control), read-out: Ragweed plant response rating
[22] = 0 to 100 scale (0 no effect, 100 complete control), read-out: Kochia plant response rating
[23] = 0 to 100 scale (0 no effect, 100 complete control), read-out: Foxtail, Giant plant response rating

Row | Compound | pest or weed control at 31 g/ha [1] | pest or weed control at 125 g/ha [1] | pest or weed control at 31 g/ha [2, 19] | pest or weed control at 31 g/ha [3, 20] | pest or weed control at 31 g/ha [4, 21] | pest or weed control at 31 g/ha (kochia (Kochia scoparia) [5]; [22]) | pest or weed control at 31 g/ha [6, 23] | melting point | plant injury at 31 g/ha [7] | plant injury at 125 g/ha [7] | pest or weed control at 31 g/ha [8] | pest or weed control at 125 g/ha [8] | pest or weed control at 31 g/ha [9] | pest or weed control at 125 g/ha [9] | pest or weed control at 31 g/ha [10] | pest or weed control at 125 g/ha [10] | pest or weed control at 31 g/ha [11] | pest or weed control at 125 g/ha [11] | Corn plant response rating (crop injury, 0 = no effect, 100 = complete kill) at 31 g/ha (corn (Zea mays)) | Corn plant response rating (crop injury, 0 = no effect, 100 = complete kill) at 125 g/ha (corn (Zea mays)) | other results
1 | FC(F)c1cnc(Oc2c(Br)cccc2Oc2ncc(Cl)cn2)s1 [Compound 10, 2-[3-bromo-2-[[5-(difluoromethyl)-2-thiazolyl]oxy]phenoxy]-5-chloropyrimidine] | 0% | 30% | 0% | 90% | 0% | 0% | 40% | 113 to 116 °C | 0% | 0% | 0% | 20% | 0% | 60% | 10% | 70% | 90% | 100% | 0% | 10% | pest or weed control at 125 g/ha ([2]; 0 to 100 scale, read-out: Plant response rating, Ryegrass, Italian): 40%; pest or weed control at 125 g/ha ([3]; 0 to 100 scale, read-out: Plant response rating, Pigweed): 100%; pest or weed control at 125 g/ha ([4]; 0 to 100 scale, read-out: Plant response rating, Ragweed): 0%; pest or weed control at 125 g/ha (kochia (Kochia scoparia) [5]; 0 to 100 scale, read-out: Plant response rating, Kochia): 50%; pest or weed control at 125 g/ha ([6]; 0 to 100 scale, read-out: Plant response rating, Foxtail, Giant): 90%; pest or weed control at 31 g/ha [12]: 0%; pest or weed control at 125 g/ha [12]: 30%; pest or weed control at 31 g/ha [13]: 50%; pest or weed control at 125 g/ha [13]: 100%; pest or weed control at 31 g/ha (kochia (Kochia scoparia) [14]): 20%; pest or weed control at 125 g/ha (kochia (Kochia scoparia) [14]): 80%; pest or weed control at 31 g/ha [15]: 0%; pest or weed control at 125 g/ha [15]: 20%; plant injury at 250 g/ha (rice (Oryza sativa)): 0%; pest or weed control at 250 g/ha [16]: 0%; pest or weed control at 250 g/ha [17]: 0%; pest or weed control at 250 g/ha [18]: 0%
2 | Fc1ccc(F)c(Oc2ncc(Br)cn2)c1Oc1ncc(Br)cn1 [Compound 31] | 0% | 70% | 0% | 70% | 0% | 30% | 40% | 166 to 170 °C | 20% | 30% | 10% | 20% | 10% | 30% | 20% | 30% | 90% | 90% | 20% | 30% | pest or weed control at 125 g/ha [2, 19]: 0%; pest or weed control at 125 g/ha [3, 20]: 100%; pest or weed control at 125 g/ha [4, 21]: 20%; pest or weed control at 125 g/ha (kochia (Kochia scoparia) [5]; [22]): 90%; pest or weed control at 125 g/ha [6, 23]: 90%; pest or weed control at 31 g/ha [12]: 0%; pest or weed control at 125 g/ha [12]: 0%; pest or weed control at 31 g/ha [13]: 70%; pest or weed control at 125 g/ha [13]: 100%; pest or weed control at 31 g/ha (kochia (Kochia scoparia) [14]): 20%; pest or weed control at 125 g/ha (kochia (Kochia scoparia) [14]): 80%; pest or weed control at 31 g/ha [15]: 20%; pest or weed control at 125 g/ha [15]: 40%; plant injury at 250 g/ha (rice (Oryza sativa)): 0%; pest or weed control at 250 g/ha [16]: 0%; pest or weed control at 250 g/ha [17]: 50%; pest or weed control at 250 g/ha [18]: 50%
